In PMC13422867, “An orally available PfPKG inhibitor blocks Plasmodium’s infection of the liver” (PLOS Pathogens, 2026):

Columns and labels:
P. falciparum 7G8 = assay: Asexual blood stage growth inhibition, SYBR Green I, 72 h; format: cell-based; conditions: Plasmodium falciparum, mean (standard error) of 3 biological replicates
Description: (§1) Asexual blood stage P. falciparum strains, including 3D7 and drug-resistant field isolates, were cultured using standard conditions in RPMI 1640 with 0.5% Albumax as described previously. EC₅₀ values were determined using a SYBR Green I fluorescence assay after 72 h of compound exposure. EC50 values were derived by nonlinear regression in GraphPad Prism version 10.

P. falciparum 3D7 = assay: as above; format: cell-based; conditions: Plasmodium falciparum, mean (standard error) of 3 biological replicates
Description: as §1

P. falciparum Dd2-B2 = assay: as above; format: cell-based; conditions: Plasmodium falciparum, mean (standard error) of 3 biological replicates
Description: as §1

P. falciparum K1 = assay: as above; format: cell-based; conditions: Plasmodium falciparum, mean (standard error) of 3 biological replicates
Description: as §1

[1] = tested on: primary human hepatocytes; assay: Cellular cytotoxicity, hepatocyte nuclear counts; format: cell-based; conditions: cellular cytotoxicity
Description: (§2) Primary cryopreserved hepatocytes were selected based on host-parasite compatibility: primary simian hepatocytes (lot OQB) for P. cynomolgi and human hepatocytes (lot BGW) for P. falciparum (BioIVT Inc., Baltimore, MD, USA). Cells were thawed according to the manufacturer’s protocol and seeded into 384-well collagen-coated assay plates (Greiner Bio-One, Monroe, NC, USA) using InVitroGro CP plating medium (BioIVT). Seeding densities were optimized for uniform monolayer formation, and hepatocytes were allowed to adhere for 24–48 hours before infection. Sporozoites were added at a 1:1.1 hepatocyte-to-sporozoite ratio within 48 hours post-seeding. Automated robotic systems were used for media changes and compound additions to ensure assay consistency and minimize variability associated with manual pipetting.
Test compounds (PfPKG inhibitors) and assay drug controls (KDU-691 and tafenoquine) were solubilized in DMSO or PBS and serially diluted into 8- or 12-point, 2- or 3-fold series, achieving final assay concentrations ranging from 20 µM to 0.019 µM. […]
High-content imaging was performed using the Operetta CLS system (Revvity) and image analysis was performed with Harmony software version 4.9 (Revvity, Waltham, MA, USA). Images were acquired at 10x or 20x magnification using DAPI and TRITC fluorescence channels. Following the established protocol, parasites were classified as hypnozoites or schizonts based on fluorescence intensity (mean and maximum), morphological features (cell roundness and size), and segmentation criteria. […] Hepatocyte viability was determined by quantifying nuclear counts per well using Hoechst stain intensity thresholds. […] An in-house built Python-based image analysis script identified parasite objects using predefined fluorescence intensity thresholds. […] Parasite size was quantified by calculating the average object area (µm²) of validated parasite structures per well. […] Dose-response inhibition and IC50 were calculated relative to in-plate negative controls (DMSO-treated wells). […]

[2] = tested on: primary simian hepatocytes; assay: Cellular cytotoxicity, hepatocyte nuclear counts; format: cell-based
Description: as §2
(§3) Test compounds (PfPKG inhibitors) and assay drug controls (KDU-691 and tafenoquine) were solubilized in DMSO or PBS and serially diluted into 8- or 12-point, 2- or 3-fold series, achieving final assay concentrations ranging from 20 µM to 0.019 µM. Compounds were introduced using a calibrated pin tool controlled by robotic arms (V&P Scientific), ensuring a 1:1000 dilution into assay wells. Media were replenished daily with fresh drug-containing HCM. Compounds were added 1-hour post-infection (p.i.) (day 0) and administered daily for 3 days. Cells were fixed on day 6 p.i. of P. falciparum culture and day 8 for P. cynomolgi infected culture, coinciding with liver stage schizont maturation.
High-content imaging was performed using the Operetta CLS system (Revvity) and image analysis was performed with Harmony software version 4.9 (Revvity, Waltham, MA, USA). Images were acquired at 10x or 20x magnification using DAPI and TRITC fluorescence channels. Following the established protocol, parasites were classified as hypnozoites or schizonts based on fluorescence intensity (mean and maximum), morphological features (cell roundness and size), and segmentation criteria. Hepatocyte nuclei were identified using Hoechst 33342 staining. Background signal was captured in uninfected, stained wells and subjected to the same parasite detection algorithm. Estimate erroneous parasite counts were then subtracted from infected well counts. Hepatocyte viability was determined by quantifying nuclear counts per well using Hoechst stain intensity thresholds. […] An in-house built Python-based image analysis script identified parasite objects using predefined fluorescence intensity thresholds. […] Parasite size was quantified by calculating the average object area (µm²) of validated parasite structures per well. […] Dose-response inhibition and IC50 were calculated relative to in-plate negative controls (DMSO-treated wells). […]

P. cynomolgi schizont = assay: Schizont formation in primary simian hepatocytes, high-content imaging; format: cell-based, Plasmodium cynomolgi
Description: (§4) Liver stage antimalarial activity was evaluated using sporozoites from P. falciparum (NF54 strain) and P. cynomolgi bastianellii (B strain). P. falciparum-infected Anopheles stephensi mosquitoes were reared at WRAIR, while P. cynomolgi-infected Anopheles dirus mosquitoes were obtained from the Armed Forces Research Institute of Medical Sciences (AFRIMS), Thailand. Sporozoites were isolated by dissecting salivary glands under sterile conditions, followed by gentle mechanical disruption. Freshly isolated sporozoites were immediately used for hepatocyte infection.
as §2
as §3, with “Compounds were added 1-hour post-infection (p.i.) (day 0) and administered daily for 3 days. Cells were fixed on day 6 p.i. of P. falciparum culture and day 8 for P. cynomolgi infected culture, coinciding with liver stage schizont maturation.” left out
(§5) Cells were fixed using 4% paraformaldehyde for 20 minutes at room temperature, followed by three PBS washes, and stored at 4°C until further processing. Parasite detection was performed using species-specific primary antibodies, with P. cynomolgi parasites labeled using a mouse monoclonal anti-Plasmodium GAPDH antibody (1.6 μg/mL, European Malaria Reagent Repository) and P. falciparum parasites detected using a rabbit polyclonal anti-PfHSP70 antibody (1:70 dilution, LS Bio, USA). […]
(§6) High-content imaging was performed using the Operetta CLS system (Revvity) and image analysis was performed with Harmony software version 4.9 (Revvity, Waltham, MA, USA). Images were acquired at 10x or 20x magnification using DAPI and TRITC fluorescence channels. Following the established protocol, parasites were classified as hypnozoites or schizonts based on fluorescence intensity (mean and maximum), morphological features (cell roundness and size), and segmentation criteria. […]

[3] = tested on: P. falciparum sporozoites; assay: Sporozoite infection of primary human hepatocytes, high-content imaging; format: cell-based, Plasmodium falciparum
Description: as §4, with “infection. […]” for “infection.”
as §5
High-content imaging was performed using the Operetta CLS system (Revvity) and image analysis was performed with Harmony software version 4.9 (Revvity, Waltham, MA, USA). Images were acquired at 10x or 20x magnification using DAPI and TRITC fluorescence channels. […]

P. cynomolgi hypnozoite = assay: Hypnozoite formation in primary simian hepatocytes, high-content imaging; format: cell-based, Plasmodium cynomolgi
Description: as §4, §2
as §3, with “Compounds were added 1-hour post-infection (p.i.) (day 0) and administered daily for 3 days. Cells were fixed on day 6 p.i. of P. falciparum culture and day 8 for P. cynomolgi infected culture, coinciding with liver stage schizont maturation.” left out
as §5, §6

ROCK1 = molecular target: T1, ROCK1 (Homo sapiens, UniProt Q13464); assay: KdElect binding affinity assay; conditions: for Kd for ROCK1 higher compared to RUPB-61: range over RUPB-8, -18, -34 and over ROCK1 and ROCK2; for Kd: read-out: ROCK1 Experimental Kd; for ROCK1 Experimental Binding (ΔG): ∆G = -RTln(Kd), 300K
T1 construct: purchased Eurofins (DiscoverX)
T1 sequence (Q13464 whole entry): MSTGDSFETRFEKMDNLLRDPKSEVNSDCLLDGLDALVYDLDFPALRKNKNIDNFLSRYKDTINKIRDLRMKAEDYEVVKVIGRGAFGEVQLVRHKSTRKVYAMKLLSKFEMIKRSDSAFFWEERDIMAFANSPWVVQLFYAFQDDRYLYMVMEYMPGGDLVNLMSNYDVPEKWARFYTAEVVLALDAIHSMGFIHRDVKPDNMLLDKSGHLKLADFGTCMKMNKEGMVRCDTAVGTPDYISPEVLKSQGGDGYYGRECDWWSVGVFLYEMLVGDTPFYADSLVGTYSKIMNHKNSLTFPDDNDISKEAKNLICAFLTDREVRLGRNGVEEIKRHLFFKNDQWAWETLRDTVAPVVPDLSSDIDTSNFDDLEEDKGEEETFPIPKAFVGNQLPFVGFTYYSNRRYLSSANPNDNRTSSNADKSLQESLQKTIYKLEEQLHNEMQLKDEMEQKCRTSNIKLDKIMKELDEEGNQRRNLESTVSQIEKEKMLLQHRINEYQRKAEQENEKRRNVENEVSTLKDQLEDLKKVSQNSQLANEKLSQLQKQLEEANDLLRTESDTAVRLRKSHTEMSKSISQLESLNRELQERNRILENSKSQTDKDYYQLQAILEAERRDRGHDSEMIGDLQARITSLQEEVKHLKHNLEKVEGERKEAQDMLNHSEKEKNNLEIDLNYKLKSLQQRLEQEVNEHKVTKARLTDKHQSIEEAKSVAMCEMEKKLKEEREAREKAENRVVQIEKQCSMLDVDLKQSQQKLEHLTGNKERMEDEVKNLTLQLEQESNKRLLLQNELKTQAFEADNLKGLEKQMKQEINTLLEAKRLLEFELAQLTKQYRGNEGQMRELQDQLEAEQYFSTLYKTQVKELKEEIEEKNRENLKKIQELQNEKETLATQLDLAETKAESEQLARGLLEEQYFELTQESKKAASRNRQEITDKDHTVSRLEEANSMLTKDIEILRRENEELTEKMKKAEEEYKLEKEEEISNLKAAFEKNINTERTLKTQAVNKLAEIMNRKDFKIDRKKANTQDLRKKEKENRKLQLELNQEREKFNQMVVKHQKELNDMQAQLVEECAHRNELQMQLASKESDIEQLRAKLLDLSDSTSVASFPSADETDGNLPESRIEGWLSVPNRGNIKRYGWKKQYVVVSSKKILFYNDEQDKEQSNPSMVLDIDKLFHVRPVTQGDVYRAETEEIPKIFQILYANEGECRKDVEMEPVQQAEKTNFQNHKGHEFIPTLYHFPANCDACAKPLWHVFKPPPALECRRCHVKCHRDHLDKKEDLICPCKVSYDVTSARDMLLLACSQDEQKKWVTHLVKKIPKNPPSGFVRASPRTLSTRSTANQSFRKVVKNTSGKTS
Description: (§7) Off-target kinase inhibition was assessed using the DiscoverX scanMAX (Eurofins) panel at 1 µM compound concentration. Binding affinities of CIT, ROCK1 and ROCK2 were evaluated using the KdElect assay (Eurofins).

CIT = molecular target: T2, CIT (Homo sapiens, UniProt O14578); assay: KdElect binding affinity assay; conditions: for Kd: read-out: CIT Experimental Kd; for Kd for CIT higher compared to RUPB-61: range over RUPB-18, -34, -69
T2 construct: purchased Eurofins (DiscoverX)
T2 sequence (O14578 whole entry): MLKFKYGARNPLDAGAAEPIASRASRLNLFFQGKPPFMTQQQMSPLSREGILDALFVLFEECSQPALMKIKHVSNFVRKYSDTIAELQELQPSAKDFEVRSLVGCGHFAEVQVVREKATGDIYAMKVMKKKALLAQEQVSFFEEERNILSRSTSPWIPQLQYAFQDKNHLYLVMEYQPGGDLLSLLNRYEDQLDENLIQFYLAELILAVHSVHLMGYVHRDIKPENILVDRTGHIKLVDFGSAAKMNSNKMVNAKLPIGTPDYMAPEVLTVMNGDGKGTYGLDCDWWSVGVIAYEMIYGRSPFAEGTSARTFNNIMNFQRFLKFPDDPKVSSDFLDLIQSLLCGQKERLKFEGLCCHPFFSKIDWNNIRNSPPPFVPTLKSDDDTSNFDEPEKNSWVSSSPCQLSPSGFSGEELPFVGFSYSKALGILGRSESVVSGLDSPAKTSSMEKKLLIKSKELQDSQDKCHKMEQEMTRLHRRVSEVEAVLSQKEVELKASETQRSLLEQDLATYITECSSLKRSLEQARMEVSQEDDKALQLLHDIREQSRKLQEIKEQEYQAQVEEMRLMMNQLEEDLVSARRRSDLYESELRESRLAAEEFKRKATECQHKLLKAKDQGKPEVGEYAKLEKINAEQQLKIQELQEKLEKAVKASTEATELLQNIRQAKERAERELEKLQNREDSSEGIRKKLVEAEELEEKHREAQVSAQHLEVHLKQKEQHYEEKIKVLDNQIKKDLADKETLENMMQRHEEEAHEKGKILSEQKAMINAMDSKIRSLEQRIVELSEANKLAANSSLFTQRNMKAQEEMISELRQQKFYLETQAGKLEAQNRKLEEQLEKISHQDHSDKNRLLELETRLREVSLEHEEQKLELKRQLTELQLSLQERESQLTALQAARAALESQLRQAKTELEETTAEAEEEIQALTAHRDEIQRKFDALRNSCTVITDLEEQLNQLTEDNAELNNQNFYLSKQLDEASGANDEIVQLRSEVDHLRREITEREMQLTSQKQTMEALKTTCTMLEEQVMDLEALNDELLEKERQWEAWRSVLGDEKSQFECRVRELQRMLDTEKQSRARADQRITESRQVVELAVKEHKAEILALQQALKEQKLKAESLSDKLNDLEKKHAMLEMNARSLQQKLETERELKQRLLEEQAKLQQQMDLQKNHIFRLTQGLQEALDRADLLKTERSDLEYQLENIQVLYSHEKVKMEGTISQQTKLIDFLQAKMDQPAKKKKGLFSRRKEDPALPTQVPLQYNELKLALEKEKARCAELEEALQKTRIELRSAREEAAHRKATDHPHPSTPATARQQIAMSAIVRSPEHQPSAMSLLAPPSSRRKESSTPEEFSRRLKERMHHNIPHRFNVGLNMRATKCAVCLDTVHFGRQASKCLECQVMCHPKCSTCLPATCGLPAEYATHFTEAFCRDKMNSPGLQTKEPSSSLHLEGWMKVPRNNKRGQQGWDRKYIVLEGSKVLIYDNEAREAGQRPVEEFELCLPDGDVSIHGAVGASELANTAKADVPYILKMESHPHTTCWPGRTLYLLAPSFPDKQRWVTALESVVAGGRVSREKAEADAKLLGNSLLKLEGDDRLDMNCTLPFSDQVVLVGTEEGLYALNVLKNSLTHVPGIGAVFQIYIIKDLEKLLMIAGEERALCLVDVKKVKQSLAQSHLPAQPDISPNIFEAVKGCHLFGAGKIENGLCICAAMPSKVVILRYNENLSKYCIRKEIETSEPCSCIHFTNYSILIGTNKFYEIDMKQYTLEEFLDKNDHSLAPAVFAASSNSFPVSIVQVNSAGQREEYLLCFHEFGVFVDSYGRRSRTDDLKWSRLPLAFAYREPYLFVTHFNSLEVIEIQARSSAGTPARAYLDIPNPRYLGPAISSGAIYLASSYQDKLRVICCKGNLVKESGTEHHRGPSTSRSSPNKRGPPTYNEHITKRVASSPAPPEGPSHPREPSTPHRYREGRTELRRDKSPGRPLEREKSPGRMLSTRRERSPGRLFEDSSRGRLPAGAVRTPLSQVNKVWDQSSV
Description: as §7

ROCK2 = molecular target: T3, ROCK2 (Homo sapiens, UniProt O75116); assay: KdElect binding affinity assay; conditions: for Kd for ROCK2 higher compared to RUPB-61: range over RUPB-8, -18, -34 and over ROCK1 and ROCK2; for Kd: read-out: ROCK2 Experimental Kd
T3 construct: purchased Eurofins (DiscoverX)
T3 sequence (O75116 whole entry): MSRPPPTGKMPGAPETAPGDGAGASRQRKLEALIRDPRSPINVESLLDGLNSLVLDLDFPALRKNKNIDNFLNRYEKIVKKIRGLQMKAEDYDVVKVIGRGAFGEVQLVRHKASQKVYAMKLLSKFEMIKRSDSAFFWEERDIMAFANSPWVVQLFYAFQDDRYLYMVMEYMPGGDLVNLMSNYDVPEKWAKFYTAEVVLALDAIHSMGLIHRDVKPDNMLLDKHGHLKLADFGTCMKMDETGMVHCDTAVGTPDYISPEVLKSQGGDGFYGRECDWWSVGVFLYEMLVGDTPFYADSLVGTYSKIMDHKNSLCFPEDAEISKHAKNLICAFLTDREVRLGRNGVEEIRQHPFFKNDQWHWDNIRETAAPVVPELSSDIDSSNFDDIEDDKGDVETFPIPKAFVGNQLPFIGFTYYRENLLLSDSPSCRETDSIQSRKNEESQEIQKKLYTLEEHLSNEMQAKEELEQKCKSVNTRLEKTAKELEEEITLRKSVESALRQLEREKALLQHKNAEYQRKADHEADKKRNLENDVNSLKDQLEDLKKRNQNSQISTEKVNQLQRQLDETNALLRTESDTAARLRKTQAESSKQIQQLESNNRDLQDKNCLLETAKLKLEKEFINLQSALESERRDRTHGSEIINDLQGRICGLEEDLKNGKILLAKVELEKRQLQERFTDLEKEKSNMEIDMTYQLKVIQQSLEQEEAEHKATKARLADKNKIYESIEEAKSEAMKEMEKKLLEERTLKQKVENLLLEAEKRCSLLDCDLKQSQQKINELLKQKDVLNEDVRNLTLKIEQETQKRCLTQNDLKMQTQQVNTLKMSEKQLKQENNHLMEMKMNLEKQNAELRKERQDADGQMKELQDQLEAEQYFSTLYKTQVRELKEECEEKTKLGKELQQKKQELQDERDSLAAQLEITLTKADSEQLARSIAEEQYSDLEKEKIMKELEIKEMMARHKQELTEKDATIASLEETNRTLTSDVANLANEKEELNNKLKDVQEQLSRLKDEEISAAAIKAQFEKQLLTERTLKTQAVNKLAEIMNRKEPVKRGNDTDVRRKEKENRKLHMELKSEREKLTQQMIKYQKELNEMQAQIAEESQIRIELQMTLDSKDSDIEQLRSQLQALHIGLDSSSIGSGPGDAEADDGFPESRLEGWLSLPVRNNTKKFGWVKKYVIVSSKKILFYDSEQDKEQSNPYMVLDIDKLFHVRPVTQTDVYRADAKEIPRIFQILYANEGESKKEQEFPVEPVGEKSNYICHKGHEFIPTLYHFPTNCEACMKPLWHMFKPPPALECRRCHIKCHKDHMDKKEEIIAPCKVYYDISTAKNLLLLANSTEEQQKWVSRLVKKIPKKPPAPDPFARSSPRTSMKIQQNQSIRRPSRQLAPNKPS
Description: as §7

[4] = tested on: P. falciparum CamWT and CamC580Y; conditions: ring-stage assays; cited from earlier work
P. falciparum TM90_C2B = assay: Asexual blood stage growth inhibition, SYBR Green I, 72 h; format: cell-based; conditions: Plasmodium falciparum, mean (standard error) of 3 biological replicates
Description: as §1

| SMILES | IC50 (P. falciparum 7G8) [µM] | IC50 (P. falciparum 3D7) [µM] | IC50 (P. falciparum Dd2-B2) [µM] | IC50 (P. falciparum K1) [µM] | Kd for ROCK1 higher compared to RUPB-61 (ROCK1) | Kd (ROCK1) [µM] | ROCK1 Experimental Binding (ΔG) (ROCK1) [kJ/mol] | Kd (CIT) [µM] | Kd for ROCK2 higher compared to RUPB-61 (ROCK2) | Kd (ROCK2) [µM] | Kd for CIT higher compared to RUPB-61 (CIT) | other results |
| --- | --- | --- | --- | --- | --- | --- | --- | --- | --- | --- | --- | --- |
| C[C@H]1[C@@H](O)O[C@@H]2O[C@@]3(C)CC[C@H]4[C@H](C)CC[C@@H]1[C@@]24OO3 [DHA, dihydroartemisinin, reference compound] | 0.0005 | 0.002 | 0.003 | 0.002 |  |  |  |  |  |  |  |  |
| CNC(=O)c1ccc(-c2cnc3cnc(C(=O)N(C)c4ccc(Cl)cc4)cn23)cc1 [KDU-691] |  |  |  |  |  |  |  |  |  |  |  | CC50 [1]: > 10 µM; CC50 [2]: > 10 µM; IC50 (P. cynomolgi schizont): 0.042 µM; IC50 [3]: 0.051 µM; IC50 (P. cynomolgi hypnozoite): 0.11 µM |
| CN1CCC(c2cc(-c3ccncc3C#N)c(-c3ccc(F)cc3)[nH]2)CC1 [RUPB-8] |  |  |  |  | 40–700 fold | 0.78 | -35.1 | 0.012 | 40–700 fold | 1.1 |  |  |
| CN1CCC(c2[nH]c(-c3ccc(F)cc3)c(-c3ccncc3)c2C#N)CC1 [RUPB-18] |  |  |  |  | 40–700 fold | 0.7 | -35.1 | 0.025 | 40–700 fold | 0.56 | 5–125 fold |  |
| COc1ccc(-c2[nH]c(C3CCN(C)CC3)cc2-c2ccncc2)cc1 [RUPB-34] |  |  |  |  | 40–700 fold | 9.2 | -28.9 | 0.62 | 40–700 fold | 6.4 | 5–125 fold |  |
| C[C@H]1CN(C)CC[C@H]1c1cc(-c2ccncc2)c(-c2ccc(F)cc2)[nH]1.Cl.Cl [RUPB-58, 4-{5-[(3R,4R)-1,3-Dimethylpiperidin-4-yl]-2-(4-fluorophenyl)-1H-pyrrol-3-yl}pyridine Dihydrochloride] | 0.057 | 0.17 | 0.467 | 0.239 |  |  |  |  |  |  |  | IC50 against DHA-sensitive CamWT compared with DHA-resistant CamC580Y [4]: similar; IC50 (P. falciparum TM90_C2B): 0.122 µM |
